“Also recorded” adds a separate entry of the source.
Key:
[1] = test system: Caspase 3 activity in kill switch-transduced HEK293 cells; test: Kill switch Caspase 3 functional assay; format: cell-based, human; conditions: relative to non-transduced cells
Experimental: Lentiviral particles encoding the kill switch fusion protein (SEQ ID NO: 223) or kill switch S196A mutant fusion protein (SEQ ID NO: 230) were generated using pPACKH1 HIV lentiviral packaging kit (Systems Bioscience), according to manufacturer's instructions. HEK293 cells were transduced for 24 h in the presence of 8 μg/ml polybrene after which cells were changed into fresh growth medium (DMEM+10% foetal bovine serum+1% Non-essential amino acids). 24 h later transduced cells were selected by addition of 2 μg/ml puromycin for 5 days. Before functional testing, transduced cell pools were FACS sorted based on GFP fluorescence to isolate high expressing cell line pools and single cell clones.
Functional Caspase 9 activates Caspase 3, and this proteolytic activity can be determined using cleavage of non-fluorescent substrate DEVD-AMC into cleavage products DEVD and fluorescent AMC, such that AMC fluorescence signal at 430 nm is proportional to Caspase 3 activity. For the Caspase 3 assay, cells were plated in duplicate onto 6 well tissue-culture treated plates. […] Cells lysates were analysed in triplicate using a Caspase 3 assay from BD Biosciences according to manufacturer's instruction with the modification that total protein input was normalised to 50 μg by BCA assay (LifeTechnologies). Fluorescence was determined on an Envision plate reader (PerkinElmer), Ex: 380 nm, Em: 430 nm. […]

[2] = molecular target: HCV NS3/4A PR K136N/PRSIM_23 (Hepatitis C virus subtype 1a, UniProt A8DG50, A1066T/I1043Q/I1044E/K1162N/L1039E/L1040E/L1047Q/S1165A, form not given); test: Biacore 8K simeprevir titration of heterodimerisation; format: binding; conditions: read-out: EC50 of simeprevir for induction of heterodimerisation; K136N protease, immobilised PRSIM_23
Experimental: The effect of simeprevir concentration on the formation of the HCV NS3/4A PR (S139A)/PRSIM binding molecule complex was also measured using the Biacore 8K. PRSIM_57 and PRSIM_23 were covalently immobilised on a CM5 chip surface, as before. Simeprevir was diluted 1:2 (0.0152-300 nM) in 10 mM Hepes pH 7.4, 150 mM NaCl, 0.05% Surfactant P20, 0.3% DMSO at a constant 40 nM HCV NS3/4A PR (S139A) concentration. The samples were flowed over the chip at 50 μl/min using multi cycle kinetics, with 240 sec association and 600 sec dissociation. Regeneration conditions were as described above. Titration curves for the induction of HCV NS3/4A PR (S139A)/PRSIM dimerization by simeprevir were generated. The response for each simeprevir concentration at 225 sec (15 sec before the end of the association) was normalized as a percentage of the response for 300 nM Simeprevir at 225 sec and plotted against the Simeprevir concentration. Each data point represents the mean of 3 independent experiments±s.e.m. The EC50 reported was calculated using nonlinear regression curve fit. The same method was used for the mutant HCV NS3/4A proteases, except simeprevir was diluted 1:2 (0.0457-900 or 0.412-8,100 nM) in 10 mM Hepes pH 7.4, 150 mM NaCl, 0.05% Surfactant P20, 0.82% DMSO at a constant 40 nM HCV NS3/4A PR (S139A) concentration and the response for each simeprevir concentration was normalized against the highest simeprevir concentration.

## COc1ccc2c(O[C@@H]3C[C@H]4C(=O)N[C@]5(C(=O)NS(=O)(=O)C6CC6)C[C@H]5/C=C\CCCCN(C)C(=O)[C@@H]4C3)cc(-c3nc(C(C)C)cs3)nc2c1C [simeprevir]
[1]; 10 nM simeprevir 3 h, wt kill switch
  Caspase 3 activity: significantly (p<0.0001) up-regulated; also recorded: significantly (p<0.0005) upregulated
[1]; 10 nM simeprevir, S196A mutant kill switch
  Caspase 3 activity: significantly (p<0.0005) upregulated
[2]
  EC50: 8.06 nM
